Test results as given in the supplement of paper PMC10307832.

Tests used:
Experiment in all cases: relative viability (nuclei count vs DMSO), 5 days (fraction); higher = more cells survive
NCI-H1792 = system: NCI-H1792
In short: (§1)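 The day after seeding in 1536-well plates, lung cancer cell lines were treated by pin tool with a single drug, or with a fixed anchor-drug dose together with five library-drug doses (not always all listed) in √10 steps. After 5 days, a combined fix-and-stain solution (final 0.05% Triton X-100, 1% formaldehyde, 1 ug/ml Hoechst) was added. Nuclei counted on 4× images gave relative viability as treated counts over vehicle counts, reported as the median of duplicate plates.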

NCI-H1734 = system: NCI-H1734
In short: as §1

COR-L23 = system: COR-L23
In short: as §1

COR-L 105 = system: COR-L 105
In short: as §1

NCI-H358 = system: NCI-H358
In short: as §1

NCI-H1793 = system: NCI-H1793
In short: as §1

SK-MES-1 = system: SK-MES-1
In short: as §1

NCI-H1993 = system: NCI-H1993
In short: as §1

NCI-H838 = system: NCI-H838
In short: as §1

HOP-62 = system: HOP-62
In short: as §1

NCI-H2347 = system: NCI-H2347
In short: as §1

CCN(CC)CCCCNc1ncc2cc(-c3cc(OC)cc(OC)c3)c(NC(=O)NC(C)(C)C)nc2n1 + CC(=O)Nc1cccc(-n2c(=O)n(C3CC3)c(=O)c3c(Nc4ccc(I)cc4F)n(C)c(=O)c(C)c32)c1 [Trametinib] (partner 0.02 µM)
relative viability (NCI-H1792; first compound 0.01 µM): 0.432
relative viability (NCI-H1792; first compound 0.03162 µM): 0.42
relative viability (NCI-H1792; first compound 0.1 µM): 0.415
relative viability (NCI-H1792; first compound 0.3162 µM): 0.518
relative viability (NCI-H1792; first compound 1 µM): 0.232
relative viability (NCI-H1734; first compound 0.01 µM): 0.665
relative viability (NCI-H1734; first compound 0.03162 µM): 0.678
relative viability (NCI-H1734; first compound 0.1 µM): 0.627
relative viability (NCI-H1734; first compound 0.3162 µM): 0.581
relative viability (NCI-H1734; first compound 1 µM): 0.407
relative viability (COR-L23; first compound 0.01 µM): 0.579
relative viability (COR-L23; first compound 0.03162 µM): 0.593
relative viability (COR-L23; first compound 0.1 µM): 0.667
relative viability (COR-L23; first compound 0.3162 µM): 0.692
relative viability (COR-L23; first compound 1 µM): 0.61
relative viability (COR-L 105; first compound 0.01 µM): 0.417
relative viability (COR-L 105; first compound 0.03162 µM): 0.406
relative viability (COR-L 105; first compound 0.1 µM): 0.483
relative viability (COR-L 105; first compound 0.3162 µM): 0.45
relative viability (COR-L 105; first compound 1 µM): 0.451
relative viability (NCI-H358; first compound 0.01 µM): 0.127
relative viability (NCI-H358; first compound 0.03162 µM): 0.15
relative viability (NCI-H358; first compound 0.1 µM): 0.143
relative viability (NCI-H358; first compound 0.3162 µM): 0.139
relative viability (NCI-H358; first compound 1 µM): 0.125
relative viability (NCI-H1793; first compound 0.01 µM): 0.456
relative viability (NCI-H1793; first compound 0.03162 µM): 0.405
relative viability (NCI-H1793; first compound 0.1 µM): 0.422
relative viability (NCI-H1793; first compound 0.3162 µM): 0.337
relative viability (NCI-H1793; first compound 1 µM): 0.238
relative viability (SK-MES-1; first compound 0.01 µM): 0.601
relative viability (SK-MES-1; first compound 0.03162 µM): 0.562
relative viability (SK-MES-1; first compound 0.1 µM): 0.525
relative viability (SK-MES-1; first compound 0.3162 µM): 0.584
relative viability (SK-MES-1; first compound 1 µM): 0.512
relative viability (NCI-H1993; first compound 0.01 µM): 0.567
relative viability (NCI-H1993; first compound 0.03162 µM): 0.5
relative viability (NCI-H1993; first compound 0.1 µM): 0.53
relative viability (NCI-H1993; first compound 0.3162 µM): 0.557
relative viability (NCI-H1993; first compound 1 µM): 0.0258
relative viability (NCI-H838; first compound 0.01 µM): 0.469
relative viability (NCI-H838; first compound 0.03162 µM): 0.515
relative viability (NCI-H838; first compound 0.1 µM): 0.514
relative viability (NCI-H838; first compound 0.3162 µM): 0.435
relative viability (NCI-H838; first compound 1 µM): 0.443
relative viability (HOP-62; first compound 0.01 µM): 0.452
relative viability (HOP-62; first compound 0.03162 µM): 0.395
relative viability (HOP-62; first compound 0.1 µM): 0.398
relative viability (HOP-62; first compound 0.3162 µM): 0.37
relative viability (HOP-62; first compound 1 µM): 0.339
relative viability (NCI-H2347; first compound 0.01 µM): 0.253
relative viability (NCI-H2347; first compound 0.03162 µM): 0.261
relative viability (NCI-H2347; first compound 0.1 µM): 0.293
relative viability (NCI-H2347; first compound 0.3162 µM): 0.367
relative viability (NCI-H2347; first compound 1 µM): 0.321
